Some test systems named below: HL-60(TB) leukemia; SK-OV-3 ovarian; SR leukemia; UACC-257 melanoma; M14 melanoma; OVCAR-4 ovarian; BT-549 breast; IGROV1 ovarian; SF-295 CNS; SNB-75 CNS.
Assay in all cases: inhibition of tumour cell growth, NCI panel, 48 h

Molecules are shown by their SMILES. Several values for one entry are separate records, joined by “and”; a condition that tells them apart may be missing. Equal values may be shown once.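 Results reflect a 48-hour exposure of cells in 96-well plates to compound at five concentrations. GI50 = concentration required for 50% inhibition of growth. TGI: concentration producing complete growth inhibition.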

In the case of `CCc1ccc(NC(=O)NC(=O)c2ccccc2[N+](=O)[O-])cc1Oc1ncc(Cl)cn1`, the TGI in the test on HL-60(TB) leukemia is 0.0247 µM; in the test on SK-OV-3 ovarian, > 100 µM; in the test with SR leukemia it was > 100 µM; with UACC-257 melanoma, > 100 µM; in the test on M14 melanoma, > 100 µM; in the test with OVCAR-4 ovarian, > 100 µM. Moreover, the TGI with BT-549 breast is 35.7 µM; in the test with IGROV1 ovarian, > 100 µM.
For `OCc1ccc(N2CCc3cccc(F)c3C2)cc1Cl`, the GI50 with HL-60(TB) leukemia was 18.4 µM; with SK-OV-3 ovarian, 1.89 µM; in the test on SF-295 CNS, 0.246 µM; in the test with SR leukemia it was 19.3 µM; with M14 melanoma, 29.3 µM; in the test with SNB-75 CNS, 13.9 µM. The GI50 with OVCAR-4 ovarian is 0.0279 µM; in the test with BT-549 breast it was 16.9 µM; in the test on IGROV1 ovarian it was 0.025 µM. Further, the TGI with HL-60(TB) leukemia is 53.2 µM; with SK-OV-3 ovarian it was 14.6 µM; in the test on SF-295 CNS, 18.1 µM; with SR leukemia it was 58.8 µM; in the test on M14 melanoma it was > 78.7 µM; in the test on SNB-75 CNS, 47.7 µM. Besides, the TGI was found to be 0.201 µM with OVCAR-4 ovarian, 36.7 µM in the test with BT-549 breast and 0.101 µM in the test on IGROV1 ovarian.
`O=c1c2cc(F)ccc2sc2c(N3CCNCC3)nc3ccc(F)cc3c12`: the GI50 with HL-60(TB) leukemia was 2.05 µM; with SF-295 CNS, 1.78 µM; with UACC-257 melanoma, 1.88 µM; with M14 melanoma, 1.94 µM; in the test on SNB-75 CNS it was 1.42 µM; in the test on OVCAR-4 ovarian, 1.83 µM. The figures for the GI50 in the test with BT-549 breast and with IGROV1 ovarian were 10.1 µM and 1.34 µM, respectively. Further, the TGI was found to be 3.94 µM in the test with HL-60(TB) leukemia; 3.22 µM in the test on SF-295 CNS; 3.7 µM in the test with UACC-257 melanoma; 3.66 µM in the test with M14 melanoma; 2.82 µM with SNB-75 CNS; 3.48 µM in the test on OVCAR-4 ovarian. Besides, the TGI with BT-549 breast was 24.1 µM; in the test with IGROV1 ovarian, 2.74 µM.
Consider `C=CCn1c(C)nc2ccc(Nc3nc(Nc4ccc(F)cc4)nc4ccccc34)cc21`, for which the GI50 in the test with HL-60(TB) leukemia was 4.95 µM; with SF-295 CNS, 6.08 µM; with SR leukemia it was 2.26 µM; in the test on UACC-257 melanoma it was 13.1 µM; with M14 melanoma, 3.26 µM; in the test on SNB-75 CNS it was 1.51 µM. The GI50 in the test on OVCAR-4 ovarian was 2.06 µM; with BT-549 breast, 3.35 µM; in the test with IGROV1 ovarian it was 6.09 µM. In addition, the TGI was determined as 23.3 µM in the test with HL-60(TB) leukemia; 20.3 µM in the test with SF-295 CNS; 5.93 µM with SR leukemia; 29.9 µM in the test with UACC-257 melanoma; 14.2 µM in the test on M14 melanoma; 3.37 µM in the test with SNB-75 CNS. The TGI in the test on OVCAR-4 ovarian was determined as 5.81 µM; in the test on BT-549 breast, 18.1 µM; in the test with IGROV1 ovarian, 27.2 µM.
`S=c1snc2n1CCN2`: the GI50 in the test on HL-60(TB) leukemia is 48 µM; in the test with SF-295 CNS it was > 100 µM; in the test on UACC-257 melanoma, > 100 µM; in the test with M14 melanoma, > 100 µM; in the test on SNB-75 CNS, > 100 µM; in the test with OVCAR-4 ovarian, > 100 µM. The GI50 with BT-549 breast and with IGROV1 ovarian was > 100 µM each time. For the same molecule, the TGI in the test on HL-60(TB) leukemia, with SF-295 CNS, in the test on UACC-257 melanoma, in the test on M14 melanoma, with SNB-75 CNS and in the test on OVCAR-4 ovarian was > 100 µM in each case. Further, the TGI in the test with BT-549 breast and in the test with IGROV1 ovarian was > 100 µM in each case.
As to `CCC(=O)c1c(NOC2OCC(OC(C)=O)C(OC(C)=O)C2OC(C)=O)nc(OC)n(C)c1=O` (stereo not given), the TGI with HL-60(TB) leukemia, in the test with SK-OV-3 ovarian, in the test with SF-295 CNS, with SR leukemia, with UACC-257 melanoma and in the test with M14 melanoma was > 100 µM in each case. Moreover, the TGI in the test on SNB-75 CNS, with OVCAR-4 ovarian and with IGROV1 ovarian was > 100 µM throughout.
In the case of `C=CCNc1nc2c(s1)C(=O)c1ccccc1C2=O`, the TGI was 4.02 µM in the test with HL-60(TB) leukemia; 31.7 µM with SK-OV-3 ovarian; 28.2 µM in the test with SF-295 CNS; > 100 µM with SR leukemia; 7.2 µM in the test on UACC-257 melanoma; 16.7 µM in the test with M14 melanoma. In addition, the TGI in the test on SNB-75 CNS was found to be 38.8 µM; with OVCAR-4 ovarian, 26.4 µM; in the test on IGROV1 ovarian, 38.3 µM.
Turning to `COC(=O)c1cc2c3ccccc3n3c(=O)c4cc5ccc(N(S(=O)(=O)c6ccc(C)cc6)S(=O)(=O)c6ccc(C)cc6)cc5nc4c(n1)c23`, the GI50 with HL-60(TB) leukemia is > 100 µM; with SK-OV-3 ovarian, 26.2 µM; in the test on SF-295 CNS, 20.5 µM; in the test with UACC-257 melanoma, > 100 µM; with M14 melanoma, 54.4 µM; in the test with SNB-75 CNS, 44.5 µM. Moreover, the GI50 was > 100 µM with OVCAR-4 ovarian, 35.7 µM in the test with BT-549 breast and 43.7 µM in the test with IGROV1 ovarian. Also, the TGI in the test with HL-60(TB) leukemia, in the test with SK-OV-3 ovarian, in the test on SF-295 CNS, in the test on UACC-257 melanoma, in the test on M14 melanoma and with SNB-75 CNS was > 100 µM throughout. In addition, the TGI in the test on OVCAR-4 ovarian, with BT-549 breast and with IGROV1 ovarian was > 100 µM throughout.
As for `COc1ccc(S(=O)(=O)N2CCN(C(=O)c3ccc(-c4ccccc4)cc3)CC2C(=O)NO)cc1` (stereo not given), the GI50 is 16.8 µM with HL-60(TB) leukemia; > 100 µM in the test with SK-OV-3 ovarian; 3.85 µM and 25.7 µM in the test with SF-295 CNS; 1.96 µM with M14 melanoma; 3.66 µM in the test with SNB-75 CNS; 3.42 µM and 27.1 µM in the test on OVCAR-4 ovarian. Besides, the GI50 in the test with BT-549 breast is 2.48 µM. In addition, the TGI is 38.1 µM with HL-60(TB) leukemia; > 100 µM in the test with SK-OV-3 ovarian; 12.5 µM and > 100 µM with SF-295 CNS; 12.5 µM and > 100 µM in the test with UACC-257 melanoma; 10 µM in the test on M14 melanoma; 10.3 µM in the test with SNB-75 CNS. Moreover, the TGI in the test on OVCAR-4 ovarian was 12.5 µM and > 100 µM; in the test with BT-549 breast, 6.69 µM.
In the case of `CC[C@H](Nc1ncnc2nc[nH]c12)c1nc2cccc(F)c2c(=O)n1-c1ccccc1`, the GI50 is 4.72 µM in the test with HL-60(TB) leukemia; 16.7 µM with SK-OV-3 ovarian; 5.75 µM in the test on SF-295 CNS; 18.9 µM in the test with UACC-257 melanoma; 40.4 µM in the test on M14 melanoma; 0.715 µM in the test on SNB-75 CNS. Further, the GI50 in the test with OVCAR-4 ovarian is > 100 µM; with BT-549 breast it was 4.64 µM; in the test on IGROV1 ovarian, 4.09 µM. The TGI in the test on HL-60(TB) leukemia was 56.5 µM; in the test with SK-OV-3 ovarian, > 100 µM; with SF-295 CNS it was > 100 µM; in the test with UACC-257 melanoma it was > 100 µM; in the test on M14 melanoma, > 100 µM; in the test with SNB-75 CNS, 16.6 µM. In addition, the TGI is > 100 µM in the test on OVCAR-4 ovarian, > 100 µM in the test on BT-549 breast and 22.7 µM in the test with IGROV1 ovarian.

These data come from PubChem BioAssay (NCI).
